In PubChem BioAssay (NCI):
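Five compound concentrations were applied to cells in 96-well plates for 48 hours; endpoints were derived by simple linear interpolation of the resulting dose-response curve. Here, GI50 denotes the concentration required for 50% inhibition of growth. TGI denotes the concentration required for complete inhibition of growth.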

Experiments:
Assay in all cases: inhibition of tumour cell growth, NCI panel, 48 h
[1] = tested on: CCRF-CEM leukemia
[2] = tested on: COLO 205 colon
[3] = tested on: HCT-15 colon
[4] = tested on: MDA-MB-435
[5] = tested on: NCI/ADR-RES ovarian
[6] = tested on: OVCAR-4 ovarian
[7] = tested on: OVCAR-5 ovarian
[8] = tested on: PC-3 prostate
[9] = tested on: SF-539 CNS
[10] = tested on: U251 CNS

## COc1ccc(C2C3=C(NC(=O)C2C#N)c2ccc4ccccc4c2OCC3)cc1 (configuration not stated)
[1]
  GI50: > 100 µM
  TGI: > 100 µM
[2]
  GI50: > 100 µM
  TGI: > 100 µM
[3]
  GI50: > 100 µM
  TGI: > 100 µM
[4]
  GI50: > 100 µM
  TGI: > 100 µM
[5]
  GI50: 31.3 µM
  TGI: > 100 µM
[6]
  GI50: > 100 µM
  TGI: > 100 µM
[7]
  GI50: > 100 µM
  TGI: > 100 µM
[8]
  GI50: 86.9 µM
  TGI: > 100 µM
[9]
  GI50: 12.9 µM
  TGI: 28 µM
[10]
  GI50: 23.6 µM
  TGI: 54.2 µM

## COc1ccc(-c2cc(C(=O)Nc3cccc(C(F)(F)F)c3)[nH]c(=S)n2)cc1
[1]
  TGI: > 100 µM
[2]
  TGI: > 100 µM
[3]
  TGI: > 100 µM
[6]
  TGI: > 100 µM
[7]
  TGI: > 100 µM
[9]
  TGI: > 100 µM
[10]
  TGI: > 100 µM

## O=C1OCC(c2ccc(O)c(O)c2)=C1c1cc(O)c(O)c(O)c1
[1]
  GI50: 30.4 µM
  TGI: > 100 µM
[2]
  GI50: 23.3 µM
  TGI: 57.7 µM
[3]
  GI50: 19.3 µM
  TGI: 44.1 µM
[4]
  GI50: 17 µM
  TGI: 32.5 µM
[5]
  GI50: 0.0297 µM
  TGI: 18.8 µM
[6]
  GI50: 26.2 µM
  TGI: 70.1 µM
[7]
  GI50: 17.7 µM
  TGI: 34.6 µM
[8]
  GI50: 17.9 µM
  TGI: 43.3 µM
[9]
  GI50: 22.8 µM
  TGI: 47.9 µM
[10]
  GI50: 17.9 µM
  TGI: 32.7 µM

## CC(C)(C)c1nc2c(o1)C(=Nc1ccccc1)c1ccccc1C2=O
[1]
  TGI: > 100 µM
[2]
  TGI: 63 µM
[3]
  TGI: 27.9 µM
[6]
  TGI: 10.2 µM
[7]
  TGI: 29.4 µM
[9]
  TGI: 8.5 µM
[10]
  TGI: 14 µM

## COc1ccc(-c2cc3cccc(OC)c3c(=O)o2)cc1OC
[1]
  GI50: 30.9 µM
  TGI: > 100 µM
[2]
  GI50: 35.8 µM
  TGI: > 100 µM
[3]
  GI50: 23.4 µM
  TGI: > 100 µM
[4]
  GI50: 3.22 µM
  TGI: > 100 µM
[5]
  GI50: 40.3 µM
  TGI: > 100 µM
[6]
  GI50: > 100 µM
  TGI: > 100 µM
[7]
  GI50: 85.5 µM
  TGI: > 100 µM
[8]
  GI50: 55.9 µM
  TGI: > 100 µM
[9]
  GI50: 0.559 µM
  TGI: 22.9 µM
[10]
  GI50: 12.4 µM
  TGI: > 100 µM

## O=C(NO)c1ccc(C(=O)NO)cc1
[1]
  TGI: 83.1 µM
[2]
  TGI: > 100 µM
[3]
  TGI: > 100 µM
[4]
  TGI: > 100 µM
[5]
  TGI: 26.2 µM
[6]
  TGI: > 100 µM
[7]
  TGI: > 100 µM
[8]
  TGI: > 100 µM
[9]
  TGI: > 100 µM
[10]
  TGI: 35.7 µM

## O=[N+]([O-])c1ccccc1S(=O)c1ccccc1 (configuration not stated)
[1]
  TGI: > 100 µM
[3]
  TGI: > 100 µM
[6]
  TGI: > 100 µM
[7]
  TGI: > 100 µM
[9]
  TGI: > 100 µM
[10]
  TGI: > 100 µM

## CCOC(C)OCC#CCCBr (configuration not stated)
[1]
  TGI: > 100 µM
[2]
  TGI: > 100 µM
[3]
  TGI: > 100 µM
[6]
  TGI: > 100 µM
[7]
  TGI: > 100 µM
[9]
  TGI: > 100 µM
[10]
  TGI: > 100 µM

## COc1cc(-c2c3c(cn2S(=O)(=O)c2ccccc2)-c2nc(N)sc2CC3)cc(OC)c1OC
[2]
  GI50: 1.14 µM
  TGI: 3.53 µM
[3]
  GI50: 0.432 µM
  TGI: 27.2 µM
[4]
  GI50: 0.238 µM
  TGI: 0.791 µM
[5]
  GI50: 0.612 µM
  TGI: > 100 µM
[6]
  GI50: 2.04 µM
  TGI: 32.3 µM
[7]
  GI50: 4.25 µM
  TGI: > 100 µM
[8]
  GI50: 0.549 µM
  TGI: 25.8 µM
[9]
  GI50: 0.548 µM
  TGI: 5.07 µM
[10]
  GI50: 0.591 µM
  TGI: 10.5 µM

## [Cu+2].[Cu+2].[O-]c1ccccc1C=Nc1ccccc1[O-].[O-]c1ccccc1C=Nc1ccccc1[O-]
[1]
  GI50: 3.33 µM
  TGI: 21.3 µM
[2]
  GI50: 2.26 µM
  TGI: 5.11 µM
[3]
  GI50: 7.25 µM
  TGI: 21.5 µM
[6]
  GI50: 2.6 µM
  TGI: 8.23 µM
[7]
  GI50: 17.7 µM
  TGI: 32.6 µM
[9]
  GI50: 13.2 µM
  TGI: 25.9 µM

## O=C(Cc1ccccc1)Oc1ccc2c(-c3ccccc3)c(C(=O)Nc3ccc(Cl)cc3)c(=O)oc2c1
[1]
  TGI: > 100 µM
[2]
  TGI: > 100 µM
[3]
  TGI: > 100 µM
[6]
  TGI: > 100 µM
[7]
  TGI: > 100 µM
[9]
  TGI: > 100 µM
[10]
  TGI: > 100 µM

## Cc1nc2sc(C(=O)Nc3cccc4ccccc34)c(N)c2cc1C(C)O (configuration not stated)
[1]
  GI50: 0.21 µM
  TGI: > 50 µM
[2]
  GI50: 0.234 µM
  TGI: 7.64 µM
[3]
  GI50: 0.189 µM
  TGI: > 50 µM
[5]
  GI50: 0.17 µM
[6]
  GI50: 1.51 µM
  TGI: > 50 µM
[7]
  GI50: 1.5 µM
  TGI: > 50 µM
[8]
  GI50: 0.285 µM
  TGI: > 50 µM
[9]
  GI50: 0.155 µM
  TGI: 0.968 µM
[10]
  GI50: 0.227 µM
  TGI: > 50 µM

## COc1cc2c(cc1OC)C1c3ccccc3C(C#N)(C2)N(C(=O)c2ccccc2)C1O (configuration not stated)
[1]
  TGI: > 100 µM
[2]
  TGI: 53.1 µM
[3]
  TGI: > 100 µM
[7]
  TGI: > 100 µM
[9]
  TGI: > 100 µM
[10]
  TGI: > 100 µM

## Cc1ccc(S(=O)(=O)N(C)C)cc1[N+](=O)[O-]
[1]
  GI50: > 100 µM
  TGI: > 100 µM
[2]
  GI50: > 100 µM
  TGI: > 100 µM
[3]
  GI50: > 100 µM
  TGI: > 100 µM
[4]
  GI50: > 100 µM
  TGI: > 100 µM
[5]
  GI50: > 100 µM
  TGI: > 100 µM
[7]
  GI50: > 100 µM
  TGI: > 100 µM
[8]
  GI50: > 100 µM
  TGI: > 100 µM
[9]
  GI50: > 100 µM
  TGI: > 100 µM
[10]
  GI50: > 100 µM
  TGI: > 100 µM

## CN(C)CCC1(C2=CCCC2)CC/C(=C\c2ccc3c(c2)OCO3)C1=O (configuration not stated)
[1]
  TGI: 41.4 µM
[2]
  TGI: 47.7 µM
[3]
  TGI: 29 µM
[6]
  TGI: 27.1 µM
[7]
  TGI: 29.2 µM
[9]
  TGI: 30.2 µM
[10]
  TGI: 29 µM

## COc1nc(OC)c2c(=O)oc(-c3ccccc3)cc2n1
[3]
  TGI: > 100 µM
[6]
  TGI: > 100 µM
[7]
  TGI: > 100 µM
[9]
  TGI: > 100 µM
[10]
  TGI: > 100 µM

## CCCCOC1CC2(c3ccc(OC)cc3)C(=O)c3ccccc3N2O1 (configuration not stated)
[1]
  TGI: > 100 µM
[2]
  TGI: 54.1 µM
[3]
  TGI: > 10 µM
[7]
  TGI: > 10 µM
[9]
  TGI: > 100 µM
[10]
  TGI: > 10 µM

## CC(NC(=O)c1ccccc1)C(=O)N(Cc1ccccc1)Cc1ccccc1 (configuration not stated)
[1]
  TGI: 47.1 µM
[2]
  TGI: 40.8 µM
[3]
  TGI: 88.9 µM
[6]
  TGI: 95.3 µM
[7]
  TGI: > 100 µM
[9]
  TGI: > 100 µM
[10]
  TGI: 91.7 µM

## O=C1CCC2(c3ccc(F)cc3)Nc3ccccc3N12 (configuration not stated)
[1]
  TGI: > 100 µM
[2]
  TGI: > 100 µM
[3]
  TGI: > 100 µM
[6]
  TGI: > 100 µM
[7]
  TGI: > 100 µM
[9]
  TGI: > 100 µM
[10]
  TGI: > 100 µM
